Measured values as given in patent US20200297711A1, “PHARMACEUTICAL COMPOSITION COMPRISING FGFR SELECTIVE TYROSINE KINASE INHIBITOR” (priority 2017, published 2020).
Marks after values point to notes of the source that are not given here.

Experiments:
[1] = Pharmacokinetics in plasma following single dose and repeated doses of Compound A 1.5 succinate; type: in vivo, human; conditions: for AUC(0-t) / Cavg / Cmax / Cmin / tmax / tmax, median (minimum − maximum) / AUC(0-inf) / CL/F / t1/2: Compound A
Experimental: In order to evaluate the PK when administered as a single dose, a single dose of Compound A for each treatment group (at the corresponding dosage for that group) was administered on Day 1. Compound A was administered when fasted, immediately after waking up with at least 10 hours fasting. Taking any meal was prohibited for 2 hours after administration and only drinking water was allowed.
Cycle 1 was started between 8 and 10 days after dosing in Cycle 0 and Compound A was administered continuously once daily. Compound A was administered at least 2 hours after breakfast, and any food intake was prohibited for 1 hour after administration. However, on Day 8 of Cycle 1, Compound A was administered immediately after waking up while the subject was fasted after at least 10 hours of overnight fasting in order to evaluate the PK. Taking any meals was prohibited for 2 hours after administration and only drinking water was allowed.
Plasma concentration profile of Compound A following a single dose and repeated doses of Compound A 1.5 succinate are shown in FIG. 1 and FIG. 2, respectively. The profile shown in FIG. 2 is that at steady state.
The pharmacokinetic parameters of Compound A following the single dose and repeated doses of Compound A 1.5 succinate are shown in the following table. The pharmacokinetic parameters of Compound A following repeated doses of Compound A 1.5 succinate shown below are those at steady state.
The pharmacokinetic parameters of Compound A following the single dose and repeated doses of Compound A 1.5 succinate updated after obtaining the above data are shown in the following table. The pharmacokinetic parameters of Compound A following repeated doses of Compound A 1.5 succinate shown below are those at steady state.
The pharmacokinetic parameters of Compound B following the single dose and repeated doses of Compound A 1.5 succinate are shown in the following table. The pharmacokinetic parameters of Compound B following repeated doses of Compound A 1.5 succinate shown below are those at steady state.

[2] = test system: FGFR2 gene amplified diffused type gastric cancer; assay: Anti-tumor activity, tumor size on CT images, patient; type: in vivo, human; conditions: 180 mg once daily, one patient, Day 1 of Cycle 3 vs before administration
Experimental: Compound A was administered once daily at 180 mg to a patient with FGFR2 gene amplified diffused type gastric cancer (poorly differentiated adenocarcinoma). The left image is that before the administration and the right image is that on Day 1 of Cycle 3.

[3] = test system: fibroblast growth factor receptors (FGFRs) 1, 2 and 3; conditions: reported in PTL 1; cited from earlier work
[4] = test system: stomach cancer, lung cancer, bladder cancer, endometrial cancer, bile duct cancer, breast cancer; conditions: endometrial cancer (PTL 1), bile duct cancer (PTL 2), breast cancer (PTL 3); cited from earlier work
[5] = repeated once-daily doses 30 mg, steady state (n = 2), Table 4
[6] = repeated once-daily doses 30 mg, steady state (n = 2), Table 5 (updated)
[7] = repeated once-daily doses 60 mg, steady state (n = 2), Table 4
[8] = repeated once-daily doses 60 mg, steady state (n = 2), Table 5 (updated)
[9] = repeated once-daily doses 100 mg, steady state (n = 3), Table 4
[10] = repeated once-daily doses 100 mg, steady state (n = 3), Table 5 (updated)
[11] = repeated once-daily doses 140 mg, steady state (n = 3), Table 4
[12] = repeated once-daily doses 140 mg, steady state (n = 3), Table 5 (updated)
[13] = repeated once-daily doses 180 mg, steady state (n = 3), Table 4
[14] = repeated once-daily doses 180 mg, steady state (n = 3), Table 5 (updated)
[15] = single dose 30 mg (n = 2), Table 4
[16] = single dose 30 mg (n = 2), Table 5 (updated)
[17] = single dose 60 mg (n = 3), Table 4
[18] = single dose 60 mg (n = 3), Table 5 (updated)
[19] = single dose 100 mg (n = 3), Table 4
[20] = single dose 100 mg (n = 3), Table 5 (updated)
[21] = single dose 140 mg (n = 3), Table 4
[22] = single dose 140 mg (n = 3), Table 5 (updated)
[23] = single dose 180 mg (n = 3), Table 4
[24] = single dose 180 mg (n = 3), Table 5 (updated)

For CNC(=O)n1ccc2cc(Oc3ccnc(NC(=O)c4ccc(C5CCN(CCO)CC5)cc4)c3)c(OCCOC)cc21 [Compound A, 5-((2-(4-(1-(2-hydroxyethyl)piperidin-4-yl)benzamide)pyridin-4-yl)oxy)-6-(2-methoxyethoxy)-N-methyl-1H-indole-1-carboxamide], the “metabolism in human subjects” value ([1]; Compound A administered to human subjects) was “metabolized in the body to produce Compound B”, the “AUC(0-t)” value [1, 5] was 158 ng·h/mL and the Cavg [1, 5] was 6.58 ng/mL. For the same molecule, the Cmax [1, 5] was 13.3 ng/mL, the Cmin [1, 5] was 2.48 ng/mL and the tmax [1, 5] was 4 (3-5) h. For the same molecule, the “AUC(0-t)” value [1, 6] was 162 ng·h/mL, the Cavg [1, 6] was 6.75 ng/mL and the Cmax [1, 6] was 13.3 ng/mL. The Cmin [1, 6] was 4.50 ng/mL, the “tmax, median (minimum − maximum)” value [1, 6] was 3.99 (3.00-4.97) h and the “AUC(0-t)” value [1, 7] was 499^a^ h · ng/mL. For the same molecule, the Cavg [1, 7] was 20.8^a ng/mL, the Cmax [1, 7] was 50.5^a ng/mL and the Cmin [1, 7] was 8.28^a ng/mL. The tmax [1, 7] was 2.5 (2-3)^a h, the “AUC(0-t)” value [1, 8] was 507^a^ h · ng/mL and the Cavg [1, 8] was 21.1^a ng/mL. For the same molecule, the Cmax [1, 8] was 50.5^a ng/mL, the Cmin [1, 8] was 11.0^a ng/mL and the “tmax, median (minimum − maximum)” value [1, 8] was 2.54 (2.07-3.00) ^a h. The “AUC(0-t)” value [1, 9] was 1330 ± 417 ng·h/mL, the Cavg [1, 9] was 55.2 ± 17.3 ng/mL and the Cmax [1, 9] was 116 ± 3.79 ng/mL. For the same molecule, the Cmin [1, 9] was 18.7 ± 7.95 ng/mL, the tmax [1, 9] was 3 (2-5) h and the “AUC(0-t)” value [1, 10] was 1340 ± 437 ng·h/mL. For the same molecule, the Cavg [1, 10] was 55.91 ± 8.2 ng/mL, the Cmax [1, 10] was 116 ± 3.79 ng/mL and the Cmin [1, 10] was 22.3 ± 8.48 ng/mL. For the same molecule, the “tmax, median (minimum − maximum)” value [1, 10] was 2.97 (2.03-5.00) h, the “AUC(0-t)” value [1, 11] was 4700 ± 3380 ng·h/mL and the Cavg [1, 11] was 196 ± 141 ng/mL. The Cmax [1, 11] was 372 ± 173 ng/mL, the Cmin [1, 11] was 101 ± 94.5 ng/mL and the tmax [1, 11] was 5 (3-5) h. The “AUC(0-t)” value [1, 12] was 4700 ± 3380 ng·h/mL, the Cavg [1, 12] was 196 ± 141 ng/mL and the Cmax [1, 12] was 372 ± 173 ng/mL. For the same molecule, the Cmin [1, 12] was 117 ± 116 ng/mL, the “tmax, median (minimum − maximum)” value [1, 12] was 5.00 (2.98-5.08) h and the “AUC(0-t)” value [1, 13] was 3850 ± 777 ng·h/mL. For the same molecule, the Cavg [1, 13] was 161 ± 32.3 ng/mL, the Cmax [1, 13] was 337 ± 60.3 ng/mL and the Cmin [1, 13] was 61.4 ± 19.9 ng/mL. For the same molecule, the tmax [1, 13] was 5 (3-5) h, the “AUC(0-t)” value [1, 14] was 3860 ± 764 ng·h/mL and the Cavg [1, 14] was 161 ± 32.3 ng/mL. For the same molecule, the Cmax [1, 14] was 337 ± 60.3 ng/mL, the Cmin [1, 14] was 64.8 ± 19.4 ng/mL and the “tmax, median (minimum − maximum)” value [1, 14] was 5.00 (3.05-5.08) h. For the same molecule, the “AUC(0-inf)” value [1, 15] was 236 ng·h/mL, the “AUC(0-t)” value [1, 15] was 220 ng·h/mL and the CL/F [1, 15] was 128 L/h. The Cmax [1, 15] was 28.1 ng/mL, the t1/2 [1, 15] was 22.8 h and the tmax [1, 15] was 3 (1-5) h. The “AUC(0-inf)” value [1, 16] was 239 ng·h/mL, the “AUC(0-t)” value [1, 16] was 222 ng·h/mL and the CL/F [1, 16] was 127 L/h. The Cmax [1, 16] was 28.1 ng/mL, the t1/2 [1, 16] was 22.7 h and the “tmax, median (minimum − maximum)” value [1, 16] was 3.04 (0.93-5.15) h. The “AUC(0-inf)” value [1, 17] was 551 ± 240 ng·h/mL, the “AUC(0-t)” value [1, 17] was 529 ± 250 ng·h/mL and the CL/F [1, 17] was 122 ± 42.5 L/h. For the same molecule, the Cmax [1, 17] was 38.7 ± 4.69 ng/mL, the t1/2 [1, 17] was 23.1 ± 7.65 h and the tmax [1, 17] was 3 (3-5) h. The “AUC(0-inf)” value [1, 18] was 554 ± 247 ng·h/mL, the “AUC(0-t)” value [1, 18] was 533 ± 257 ng·h/mL and the CL/F [1, 18] was 121 ± 43.1 L/h. For the same molecule, the Cmax [1, 18] was 38.7 ± 4.69 ng/mL, the t1/2 [1, 18] was 23.1 ± 7.63 h and the “tmax, median (minimum − maximum)” value [1, 18] was 3.00 (2.97-4.98)^ h. For the same molecule, the “AUC(0-inf)” value [1, 19] was 1120 ± 488 ng·h/mL, the “AUC(0-t)” value [1, 19] was 1090 ± 483 ng·h/mL and the CL/F [1, 19] was 103 ± 48.9 L/h. For the same molecule, the Cmax [1, 19] was 85.9 ± 30.8 ng/mL, the t1/2 [1, 19] was 15.1 ± 1.77 h and the tmax [1, 19] was 5 (3-5) h. The “AUC(0-inf)” value [1, 20] was 1120 ± 479 ng·h/mL, the “AUC(0-t)” value [1, 20] was 1080 ± 474 ng·h/mL and the CL/F [1, 20] was 103 ± 48.2 L/h. The Cmax [1, 20] was 85.9 ± 30.8 ng/mL, the t1/2 [1, 20] was 15.2 ± 1.84 h and the “tmax, median (minimum − maximum)” value [1, 20] was 4.95 (2.97-5.10) h. For the same molecule, the “AUC(0-inf)” value [1, 21] was 4000 ± 3340 ng·h/mL, the “AUC(0-t)” value [1, 21] was 3900 ± 3230 ng·h/mL and the CL/F [1, 21] was 60.4 ± 51.6 L/h. The Cmax [1, 21] was 227 ± 118.0 ng/mL, the t1/2 [1, 21] was 26.4 ± 12.2 h and the tmax [1, 21] was 5 (3-5) h. The “AUC(0-inf)” value [1, 22] was 4050 ± 3340 ng·h/mL, the “AUC(0-t)” value [1, 22] was 3960 ± 3230 ng·h/mL and the CL/F [1, 22] was 59.0 ± 50.2 L/h. The Cmax [1, 22] was 227 ± 118 ng/mL, the t1/2 [1, 22] was 26.4 ± 12.4 h and the “tmax, median (minimum − maximum)” value [1, 22] was 4.88 (3.00-5.08) h. For the same molecule, the “AUC(0-inf)” value [1, 23] was 2570 ± 907 ng·h/mL, the “AUC(0-t)” value [1, 23] was 2540 ± 924 ng·h/mL and the CL/F [1, 23] was 75.0 ± 22.0 L/h. For the same molecule, the Cmax [1, 23] was 154 ± 38.4 ng/mL, the t1/2 [1, 23] was 23.6 ± 10.2 h and the tmax [1, 23] was 2 (2-5) h. For the same molecule, the “AUC(0-inf)” value [1, 24] was 2610 ± 921 ng·h/mL, the “AUC(0-t)” value [1, 24] was 2570 ± 933 ng·h/mL and the CL/F [1, 24] was 74.2 ± 21.8 L/h. For the same molecule, the Cmax [1, 24] was 154 ± 38.4 ng/mL, the t1/2 [1, 24] was 23.7 ± 10.4 h and the “tmax, median (minimum − maximum)” value [1, 24] was 2.12 (1.95-5.00) h. For the same molecule, the tumor size [2] was “reduced significantly”, the “inhibitory activity on FGFRs 1, 2 and 3” value [3] was “has an inhibitory activity” and the “cell growth suppressing activity” value [4] was “has a cell growth suppressing activity”.
